Measurements reported in patent US6750228B1, “Aromatic sulfone hydroxamic acid metalloprotease inhibitor” (priority 1997, dated 2004).
Structures can show the parent of a compound that is named as a salt. Where two headings read alike, the source gives them in different places.

Experiments:
Assay in all cases: biochemical
[1] = target: T1, MMP-1 (Homo sapiens, UniProt P03956); settings: read-out: MMP-1 IC50
T1 construct: made in house; host or cells: transfected HT-1080 cells (provided by Dr. Harold Welgus, Washington University)
T1 sequence (P03956 100-469): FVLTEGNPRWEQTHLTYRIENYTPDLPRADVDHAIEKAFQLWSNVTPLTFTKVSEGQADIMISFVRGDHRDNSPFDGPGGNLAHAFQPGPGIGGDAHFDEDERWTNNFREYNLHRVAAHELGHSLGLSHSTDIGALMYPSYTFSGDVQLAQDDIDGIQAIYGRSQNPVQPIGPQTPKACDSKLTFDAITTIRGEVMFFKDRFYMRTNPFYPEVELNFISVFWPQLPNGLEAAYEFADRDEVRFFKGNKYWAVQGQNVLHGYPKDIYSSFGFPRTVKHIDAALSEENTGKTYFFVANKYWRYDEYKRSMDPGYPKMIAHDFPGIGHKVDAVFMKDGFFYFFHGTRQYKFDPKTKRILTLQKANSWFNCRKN
Summary of the method: (§1)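 APMA- or trypsin-activated enzymes were preincubated with inhibitor for 5 min at room temperature, then the fluorogenic substrate MCA-Pro-Leu-Gly-Leu-Dpa-Ala-Arg-NH2 was added to a final 4 μM.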

[2] = target: T2, MMP-2 (Homo sapiens, UniProt P08253); settings: read-out: MMP-2 IC50
T2 construct: made in house; provided by Dr. Gregory Goldberg, Washington University
T2 sequence (P08253 110-660): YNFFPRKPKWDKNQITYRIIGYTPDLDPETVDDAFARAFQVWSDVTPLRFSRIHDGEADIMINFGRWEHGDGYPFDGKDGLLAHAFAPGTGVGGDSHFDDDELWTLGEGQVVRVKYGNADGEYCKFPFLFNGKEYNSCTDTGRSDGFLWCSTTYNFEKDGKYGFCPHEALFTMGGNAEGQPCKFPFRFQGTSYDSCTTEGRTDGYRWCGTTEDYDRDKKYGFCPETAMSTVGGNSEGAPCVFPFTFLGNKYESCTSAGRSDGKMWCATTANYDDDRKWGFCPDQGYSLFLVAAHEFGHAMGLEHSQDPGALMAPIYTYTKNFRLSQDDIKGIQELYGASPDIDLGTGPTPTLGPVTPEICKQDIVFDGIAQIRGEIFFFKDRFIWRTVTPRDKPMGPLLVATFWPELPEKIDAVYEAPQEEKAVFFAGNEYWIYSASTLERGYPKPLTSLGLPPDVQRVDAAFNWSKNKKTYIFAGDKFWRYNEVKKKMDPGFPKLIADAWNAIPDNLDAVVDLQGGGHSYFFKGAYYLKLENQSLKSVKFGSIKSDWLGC
Summary of the method: as §1

[3] = target: T3, MMP-13 (Homo sapiens, UniProt P45452); settings: read-out: MMP-13 IC50
T3 construct: made in house; host or cells: baculovirus / insect cells
Summary of the method: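 Assay buffer 100 mM Tris-HCl, 100 mM NaCl, 10 mM CaCl2, pH 7.5. Activated MMP + inhibitor, 5 min RT; then methoxycoumarin peptide substrate, 4 μM final. Readout fluorescence; IC50 calculated.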

[4] = recombinant human MMP-1, MCA peptide substrate 4 μM, pH 7.5, room temperature
[5] = recombinant human MMP-2, MCA peptide substrate 4 μM, pH 7.5, room temperature
[6] = recombinant human MMP-13, MCA peptide substrate 4 μM, pH 7.5, room temperature

Compound | IC50 [1, 4] | IC50 [2, 5] | IC50 [3, 6] | IC50 [1] | IC50 [2] | IC50 [3]
CC1CC(C)CN(C(=O)C2CCN(c3ccc(S(=O)(=O)C4(C(=O)NO)CCN(C(=O)CNCCc5c[nH]cn5)CC4)cc3)CC2)C1 (stereo not drawn) [Example 281] | > 10000 nM | > 10000 nM | 105 nM |  |  | 
O=C(NO)C1(S(=O)(=O)c2ccc(Oc3ccc(C(F)(F)F)cc3)cc2)CCN(c2ncccc2[N+](=O)[O-])CC1 [Example 374] | > 10000 nM | 4 nM | 3.3 nM |  |  | 
CC(C)c1ccc(C(=O)C2CCN(c3ccc(S(=O)(=O)C4(C(=O)NO)CCOCC4)cc3)CC2)cc1 [Example 788] | > 10000 nM | 445 nM | 3 nM |  |  | 
CC1CN(c2ccc(S(=O)(=O)C3(C(=O)NO)CCOCC3)cc2)CCC1OCc1ccccc1 (stereo not drawn) [Example 581] | > 10000 nM | 480 nM | 27 nM |  |  | 
Cn1c(=O)n(C2CCN(c3ccc(S(=O)(=O)C4(C(=O)NO)CCOCC4)cc3)CC2)c2ccccc21 [Example 589] | > 10000 nM | > 10000 nM | 70 nM |  |  | 
O=C(C1CCN(c2ccc(S(=O)(=O)C3(C(=O)NO)CCOCC3)cc2)CC1)N1CCN(CCN2CCOCC2)CC1 [Example 42] |  |  |  | > 10000 nM | > 10000 nM | 82.5 nM
COc1ccc(C(=O)C2CCN(c3ccc(S(=O)(=O)C4(C(=O)NO)CCOCC4)cc3)CC2)cc1F [Example 735] | > 10000 nM | 800 nM | 9 nM |  |  | 
CC1CC(C)CN(C(=O)C2CCN(c3ccc(S(=O)(=O)C4(C(=O)NO)CCN(C(=O)CN(C)CCN(C)C)CC4)cc3)CC2)C1 (stereo not drawn) [Example 287] | > 10000 nM | > 10000 nM | 150 nM |  |  | 
CC(C)(C)OC1CCN(c2ccc(S(=O)(=O)C3(C(=O)NO)CCOCC3)cc2)CC1 [Example 693] | > 10000 nM | 1900 nM | 210 nM |  |  | 
O=C(c1ccc(F)cc1)C1CCN(c2ccc(S(=O)(=O)C3(C(=O)NO)CCS(=O)(=O)CC3)cc2)CC1 [Example 161] |  |  |  | > 10000 nM | 900 nM | 32.6 nM
CCCCOC1CCN(c2ccc(S(=O)(=O)C3(C(=O)NO)CCN(C(=O)OC(C)(C)C)CC3)cc2)CC1 [Example 442] | > 10000 nM | 211 nM | 10 nM |  |  | 
COCCN1CCC(C(=O)NO)(S(=O)(=O)c2ccc(N3CCC(OCc4ccc(F)c(C(F)(F)F)c4)CC3)cc2)CC1 [Example 446] | > 10000 nM | 7000 nM | 270 nM |  |  | 
O=C(NO)C1(S(=O)(=O)c2ccc(OC3CCC(OCc4cccc(OC(F)(F)F)c4)C3)cc2)CCOCC1 (stereo not drawn) [Example 714] | > 10000 nM | 420 nM | 28.8 nM |  |  | 
N#Cc1cccc(COC2CCN(c3ccc(S(=O)(=O)C4(C(=O)NO)CCOCC4)cc3)CC2)c1 [Example 560] | > 10000 nM | 306 nM | 4.5 nM |  |  | 
CC(=O)N1CCC(C(=O)NO)(S(=O)(=O)c2ccc(N3CCC(C(=O)Nc4ccccc4)CC3)cc2)CC1 [Example 245, 1-Acetyl-N-hydroxy-4-[[4-[4-[(phenylamino)carbonyl]-1-piperidinyl]phenyl]sulfonyl]-4-piperidinecarboxamide] | > 10000 nM | 800 nM | 20 nM |  |  | 
Cc1cccc(N2CCN(c3ccc(S(=O)(=O)C4(C(=O)NO)CCOCC4)cc3)CC2)c1C [Example 490] | > 10000 nM | 3000 nM | 61 nM |  |  | 
O=C(NO)C1(S(=O)(=O)c2ccc(N3CCCN(S(=O)(=O)c4ccccc4)CC3)cc2)CCOCC1 [Example 650] | > 10000 nM | 1200 nM | 14.7 nM |  |  | 
O=C(NO)C1(S(=O)(=O)c2ccc(N3CCC(OCc4cccc(C(F)(F)F)c4)CC3)cc2)CCN(C2CC2)CC1 [Example 402] | > 10000 nM | 340 nM | 15.8 nM |  |  | 
C[C@H]1C[C@H](C)CN(C(=O)C2CCN(c3ccc(S(=O)(=O)C4(C(=O)NO)CCN(C(=O)OC(C)(C)C)CC4)cc3)CC2)C1 (relative stereo) [Example 239, rel-1,1-Dimethylethyl 4-[[4-[4-[[(3R,5R)-3,5-Dimethyl-1-piperidinyl]carbonyl]-1-piperidinyl]-phenyl]sulfonyl]-4-[(hydroxyamino)carbonyl]-1-piperidinecarboxylate] |  |  |  | > 10000 nM | 8300 nM | 9 nM
COCC1CCCN(c2ccc(S(=O)(=O)C3(C(=O)NO)CCOCC3)cc2)C1 (stereo not drawn) [Example 525] | > 10000 nM | 700 nM | 290 nM |  |  | 
C[C@@H]1C[C@H](C)CN(C(=O)C2CCN(c3ccc(S(=O)(=O)C4(C(=O)NO)CCN(C(=O)OC(C)(C)C)CC4)cc3)CC2)C1 [Example 241, rel-1,1-Dimethylethyl 4-[[4-[4-[[(3R,5S)-3,5-Dimethyl-1-piperidinyl]carbonyl]-1-piperidinyl]-phenyl]sulfonyl]-4-[(hydroxyamino)carbonyl]-1-piperidinecarboxylate] | > 10000 nM | > 10000 nM | 4.8 nM |  |  | 
O=C(NO)C1(S(=O)(=O)c2ccc(Oc3ccc(OC(F)(F)F)cc3)cc2)CCN(c2ccccn2)CC1 [Example 352] | > 10000 nM | 0.3 nM | 1.4 nM |  |  | 

Second part, led by results:

IC50 [1, 4] | IC50 [2, 5] | IC50 [3, 6] | Compound | IC50 [1] | IC50 [2] | IC50 [3]
> 10000 nM | 440 nM | 3.5 nM | O=C(NO)C1(S(=O)(=O)c2ccc(N3CCC(OCc4ccc(F)cc4)CC3)cc2)CCOCC1 [Example 164] |  |  | 
> 10000 nM | 1400 nM | 28.9 nM | O=C(NCC1CC1)C1CCN(c2ccc(S(=O)(=O)C3(C(=O)NO)CCOCC3)cc2)CC1 [Example 53] |  |  | 
> 10000 nM | 0.1 nM | 0.8 nM | O=C(c1ccccc1)N1CCC(C(=O)NO)(S(=O)(=O)c2ccc(Oc3ccc(C(F)(F)F)cc3)cc2)CC1 [Example 92] |  |  | 
> 10000 nM | 5.7 nM | 4.3 nM | Cc1ccc(OC2CCN(c3ccc(S(=O)(=O)C4(C(=O)NO)CCOCC4)cc3)CC2)cc1 [Example 619] |  |  | 
> 10000 nM | 34.7 nM | 7 nM | O=C(NO)C1(S(=O)(=O)c2ccc(N3CCN(S(=O)(=O)c4ccc(C(F)(F)F)cc4)CC3)cc2)CCOCC1 [Example 677] |  |  | 
> 10000 nM | 240 nM | 130 nM | O=C(NO)C1(S(=O)(=O)c2ccc(N3CCCC3)cc2)CCSCC1 [Example 155] |  |  | 
> 10000 nM | 3000 nM | 70 nM | CCC(CC)COCc1ccc(COC2CCN(c3ccc(S(=O)(=O)C4(C(=O)NO)CCOCC4)cc3)CC2)cc1 [Example 602] |  |  | 
> 10000 nM | 110 nM | 17.6 nM | O=C(NO)C1(S(=O)(=O)c2ccc(OC3CCC(OCc4ccccc4Cl)C3)cc2)CCOCC1 (stereo not drawn) [Example 688] |  |  | 
> 10000 nM | 20 nM | 2.2 nM | CCCCCC(=O)C1CCN(c2ccc(S(=O)(=O)C3(C(=O)NO)CCOCC3)cc2)CC1 [Example 755] |  |  | 
> 10000 nM | 1900 nM | 13 nM | COCCN1CCC(C(=O)NO)(S(=O)(=O)c2ccc(N3CCC(C(=O)NCCCc4ccccc4)CC3)cc2)CC1 [Example 237, N-Hydroxy-1-(2-methoxyethyl)-4-[[4-[4-[[(3-phenylpropyl)amino]carbonyl]-1-piperidinyl]-phenyl]sulfonyl]-4-piperidinecarboxamide, Monohydrochloride] |  |  | 
> 10000 nM | 2000 nM | 140 nM | CC(=O)c1ccc(OC2CCN(c3ccc(S(=O)(=O)C4(C(=O)NO)CCOCC4)cc3)CC2)cc1 [Example 470] |  |  | 
